Assay results taken from patent US12344600B2, “c-Myc mRNA translation modulators and uses thereof in the treatment of cancer” (Anima Biotech Inc., priority 2022, dated 2025).
Starred links: 1 amine or outer side, 2 acyl side, 3 side chain; linkers in the order of their positions; H or OH if unused. Positions of bridges follow the written chain, without caps; N, C: chain ends. Non-standard residues stand in square brackets, D forms with d. Residues, ends and D or L forms follow the SMILES beside them. Chains are numbered I, II in the order given. Actinocin(9to1) = Cc1c2oc3c(C)ccc(C(=O)[*:1])c3nc-2c(C(=O)[*:2])c(N)c1=O; NMeV = CN[C@H](C(=O)O)C(C)C; Sar = CNCC(=O)O

Legend:
Assay type in all cases: cell-based, human
c-Myc = c-Myc immunofluorescence assay; conditions: A549 cells, 24 hours; for Myc Efficacy (−LogEC50): anti-c-Myc immunofluorescence
Method in brief: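 A549 NSCLC cells grown 48 h, then treated 24 h with increasing compound concentrations; fixed in 4% paraformaldehyde, stained with anti-c-Myc antibody plus fluorescent secondary and DAPI. Per-cell c-Myc fluorescence quantified by high-content imaging at 20×; dose-response fitted by logistic regression to give EC50.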

c-Myc protein = c-Myc protein level in A549 cells (imaging)
From the text: (§1) A549 cells were exposed to vehicle, general transcription inhibitor actinomycin D or anti-c-Myc compound. […] Cell nuclei stained with DAPI, c-Myc protein, c-Myc mRNA and transcription sites are signed on the images.

c-Myc mRNA [1] = test: c-Myc mRNA level and transcription sites in A549 cells (imaging)
From the text: as §1

c-Myc mRNA [2] = test: Fluorescent in situ hybridization (FISH) assay; conditions: A549 cells, 4 hours, FIG. 3 lower panel
Description: A549 cells were incubated with compounds for 24 hours (FIG. 3, upper panel) and c-Myc protein detected by immunofluorescence. In parallel, A549 cells were incubated with compounds for 4 hours and c-Myc mRNA was visualized by microscopy using c-Myc mRNA specific fluorescent-tagged probes (FIG. 3, lower panel).
A549 cells were grown in 384-wells plates (Perkin Elmer, Cat. 6057300) for 48 hours, treated with compounds for 4 hours and then fixed for 20 min in 4% paraformaldehyde. Next day, permeabilization was done for 90 min at 4° C., using 70% ethanol. Then, the cells were incubated for 10 min with 10% formamide in 10% saline-sodium citrate. Fluorescently labeled customer DNA probes that target c-Myc (Cy3, BioSearch Technologies, Cat. SMF-1063-5) and GAPDH (Cy5, BioSearch Technologies, Cat. SMF-2019-1) mRNAs were hybridized overnight at 37° C. in a dark chamber in 10% formamide. The next day, cells were washed twice with 10% formamide for 30 min. […]
Following RNA FISH experiments, images of cells were taken with Operetta (Perkin Elmer, USA), a wide-field fluorescence microscope at ×63 magnification. […] In Columbus, cells were identified by their nucleus, using the “Find Nuceli” module, cytoplasm was detected based on the FISH-channel, and single mRNAs in the cytoplasm and transcription sites in the nucleus were detected using “Find Spots” module. […]

[3] = system: global translation in A549 cells; test: Metabolic labeling assay (global translation); conditions: 4 hour pulse, FIG. 2
Description: A549 cells were incubated with active compounds and metabolically labelled with fluorescent methionine for a 4 hour pulse (click-chemistry modified methionine). Cells were fixed and newly synthesized proteins detected by using click-chemistry with a fluorescent detector (FIG. 2).
A549 cells were seeded at 3,200 cells per well in complete culture medium. Plates were incubated at 37° C., 5% CO2 overnight. After 48 hours of incubation, the growth medium was aspirated, and cells were washed three times with HBSS. Metabolic labeling medium DMEM (-Cys -Met), containing 10% dialyzed FBS, 1% penicillin-streptomycin and 1% L-glutamine was added to the cells for 30 min. Then medium was replaced by metabolic labeling medium containing 25 μM L-Azidohomoalanine (AHA, ThermoFisher) and tested compounds at a final concentration of 30 μM, and cells were incubated for 4 hours at 37° C., 5% CO2. Cells were washed by HBSS at 37° C. for 15 min before fixing with 4% paraformaldehyde. Cells were washed twice with 3% BSA in PBS before permeabilization with 0.5% Triton X-100 in PBS for 20 min. The AHA staining with Alexa Fluor™ 555 alkyne was performed according to the manufacturer protocol. Images were captured with Operetta microscope (Perkin Elmer) using ×20 high NA objective lens.

global protein synthesis = test: AHA metabolic labeling in A549 cells
From the text: FIG. 2 depicts selective regulation of c-Myc translation. […] Cell nuclei stained with DAPI and AHA metabolic labeling are signed on the images.

COc1ccc(-c2noc(N3CCC(C(=O)NC[C@@H]4CCN(C[C@H]5CCCN(C)C5)C4)CC3)n2)cc1 [Compound 466, 1-(3-(4-methoxyphenyl)-1,2,4-oxadiazol-5-yl)-N-(((S)-1-(((S)-1-methylpiperidin-3-yl)methyl)pyrrolidin-3-yl)methyl)piperidine-4-carboxamide]
Myc Efficacy (−LogEC50) (c-Myc): + (+ >3 and <5)

CN1CCC[C@H](CN2CCC(CNC(=O)C3CCN(c4nc(-c5ccc(C#N)cc5)no4)CC3)C2)C1 (stereo partly drawn) [Compound 467, 1-(3-(4-cyanophenyl)-1,2,4-oxadiazol-5-yl)-N-((1-(((S)-1-methylpiperidin-3-yl)methyl)pyrrolidin-3-yl)methyl)piperidine-4-carboxamide]
Myc Efficacy (−LogEC50) (c-Myc): + (+ >3 and <5)

CN1CCC[C@H](CN2CCC(CNC(=O)C3CCN(c4nc(-c5ccc(Cl)cc5)no4)CC3)C2)C1 (stereo partly drawn) [Compound 468, 1-(3-(4-chlorophenyl)-1,2,4-oxadiazol-5-yl)-N-((1-(((S)-1-methylpiperidin-3-yl)methyl)pyrrolidin-3-yl)methyl)piperidine-4-carboxamide]
Myc Efficacy (−LogEC50) (c-Myc): ++ (++ ≥5 and <6)

Cc1ccc(CN2CCC(CNC(=O)N3CCN(c4nc(-c5ccc(OCC(O)CO)cc5)no4)CC3)C2)cc1 (stereo not shown) [Compound 473, 4-(3-(4-(2,3-dihydroxypropoxy)phenyl)-1,2,4-oxadiazol-5-yl)-N-((1-(4-methylbenzyl)pyrrolidin-3-yl)methyl)piperazine-1-carboxamide]
Myc Efficacy (−LogEC50) (c-Myc): + (+ >3 and <5)

CN1CCC[C@@H](CN2CC[C@@H](CNC(=O)C3CCN(c4nc(-c5ccc(Cl)cc5)no4)CC3)C2)C1 [Compound 474, 1-(3-(4-chlorophenyl)-1,2,4-oxadiazol-5-yl)-N-(((S)-1-(((R)-1-methylpiperidin-3-yl)methyl)pyrrolidin-3-yl)methyl)piperidine-4-carboxamide]
Myc Efficacy (−LogEC50) (c-Myc): ++ (++ ≥5 and <6)

CN1CCC[C@@H](CN2CC[C@H](CNC(=O)C3CCN(c4nc(-c5ccc(Cl)cc5)no4)CC3)C2)C1 [Compound 475, 1-(3-(4-chlorophenyl)-1,2,4-oxadiazol-5-yl)-N-(((R)-1-(((R)-1-methylpiperidin-3-yl)methyl)pyrrolidin-3-yl)methyl)piperidine-4-carboxamide]
Myc Efficacy (−LogEC50) (c-Myc): ++ (++ ≥5 and <6)

Cc1c2oc3c(C)ccc(C(=O)N[C@@H]4C(=O)N[C@H](C(C)C)C(=O)N5CCC[C@H]5C(=O)N(C)CC(=O)N(C)[C@@H](C(C)C)C(=O)O[C@@H]4C)c3nc-2c(C(=O)N[C@@H]2C(=O)N[C@H](C(C)C)C(=O)N3CCC[C@H]3C(=O)N(C)CC(=O)N(C)[C@@H](C(C)C)C(=O)O[C@@H]2C)c(N)c1=O [actinomycin D] (I: T[dV]P[Sar][NMeV] / II: T[dV]P[Sar][NMeV]; ester I:1-I:C, II:1-II:C; linker I:N-II:N via Actinocin(9to1))
c-Myc protein level (c-Myc protein): significant decrease | c-Myc mRNA level as well as transcription sites (c-Myc mRNA [1]): complete reduction | c-Myc mRNA in the cytoplasm (c-Myc mRNA [2]): inhibited | c-Myc transcription site (spots inside the nucleus) (c-Myc mRNA [2]): inhibited transcription site | c-Myc protein by immunofluorescence (c-Myc; FIG. 3 upper panel): reduced c-Myc protein

C[C@@H]1C[C@@H]([C@H](O)CC2CC(=O)NC(=O)C2)C(=O)[C@@H](C)C1 [cycloheximide]
incorporation of modified methionine (global translation) [3]: completely reduced incorporation of modified methionine | global protein synthesis (AHA metabolic labeling) (global protein synthesis): total inhibition
